The results in this text go back to patent publication US20150225369A1, “DDR2 INHIBITORS FOR THE TREATMENT OF OSTEOARTHRITIS” (Merck Patent GmbH, priority 2012, published 2015).

Assay [1] has as its target T1, His-tagged human recombinant DDR-2 kinase domain (His-TEV-DDR2 467-855 aa) (Homo sapiens, UniProt Q16832).
T1 construct: His-TEV-DDR2 467-855 aa
T1 sequence (Q16832 467-855): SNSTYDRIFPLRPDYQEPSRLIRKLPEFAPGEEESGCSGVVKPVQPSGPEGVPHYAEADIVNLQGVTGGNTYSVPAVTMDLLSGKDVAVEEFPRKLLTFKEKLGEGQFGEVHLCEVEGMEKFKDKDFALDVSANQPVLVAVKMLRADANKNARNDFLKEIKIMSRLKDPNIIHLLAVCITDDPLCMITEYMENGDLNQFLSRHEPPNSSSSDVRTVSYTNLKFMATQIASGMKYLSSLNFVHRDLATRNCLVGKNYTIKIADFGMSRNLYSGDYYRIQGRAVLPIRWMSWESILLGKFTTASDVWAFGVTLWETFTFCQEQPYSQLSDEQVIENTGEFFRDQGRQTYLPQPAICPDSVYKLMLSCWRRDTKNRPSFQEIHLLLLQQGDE
Briefly: Autophosphorylation assay for biochemical activity testing of DDR2 (HTRF). Particulars: 4 nM DDR2 kinase domain, 150 μM ATP, 150 min at 22° C. An outline of the steps:
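Phospho-tyrosine was detected by HTRF between XL665 anti-6His and cryptate anti-phosphotyrosine PT66 antibodies, using the emission ratio. Inhibition was referenced to the inhibitor-free reaction.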
Background: In TR-FRET formats the signal depends on donor and acceptor labels being close together.

The test system of assay [2] is proMMP13 production by SW1353 cells. Briefly: Production of MMP13 (proMMP13 ELISA) by SW1353 cells upon stimulation with collagen type II. The following applies: Homo sapiens, read-out: IC50 [pro-MMP13]. The assay is classed as cell-based. The protocol: The binding of Collagen type II to the DDR2 receptor of the SW1353 cells initiate a signalling cascade resulting in the increase of MMP13 expression. MMP13 is released in the culture medium in its pro-form, the proMMP13 which can be measured with an ELISA.
DDR2 inhibitors are evaluated for their ability to block this signalling cascade and therefore proMMP13 production upon collagen stimulation.
SW1353 cells (ATCC, HTB-94), conserved in liquid nitrogen, are thawed and cultivated at 1.6.10^6 cells in a T75 in RPMI1640 supplemented with 2 mM Glutamin, 1 mM Na-Pyruvate, 10% FCS, at 37° C., 5% CO2 for three days. SW1353 cells are then harvested with trypsin/EDTA and resuspended in RPMI1640 supplemented with 2 mM Glutamin, 1 mM Na-Pyruvate, 25 mM HEPES and 0.5% FCS (assay medium) and inoculated in a 96 well plate at 30 000 cells/well in 100 μL of the assay medium and further incubated 24 hours at 37°, 5% CO2 to enable cell adhesion. For stimulation of the DDR2 receptor, 50 μL of a collagen type II solution 160 μg/mL (final concentration in the well is 40 μg/mL) will be added in each well as well as 50 μL of the different dilutions of the inhibitors (MSCs) from 0.003 μM to 10 μM (final concentration in the plate). Each condition is performed in four-plicates. After three additional days of culture, the supernatant will be harvested for proMMP13 measurement.
The Different Controls Present on Each Plate are Composed of Assay Medium with: Positive control (with the reference compound): 40 μg/mL Collagen type II, 0.03 μM Dasatinib (reference compound) in 0.1% DMSO Negative control (no inhibition): 40 μg/mL Collagen type II and 0.1% DMSO Medium control (no stimulation): 0.005% Acetic acid and 0.1% DMSO All wells contains 0.1% DMSO and 0.005% acetic acid.
The solutions needed are: • Collagen type II is diluted at 2 mg/mL in 0.25% acetic acid. This stock solution can be stored at 4° C. for a week and is diluted 1/12.5 in the assay medium (to obtain 160 μg/mL in 0.02% acetic acid) before being used in the assay. • MSCs from 0.012 to 40 μM in assay medium with 0.4% DMSO (they are then further diluted ¼ in the assay plate) • Dasatinib 0.12 μM in assay medium with 0.4% DMSO (it is then further diluted ¼ in the assay plate) • Acetic acid 0.02% in assay medium (control).
The harvested supernatants are either directly used or stored at −20° C. until use. ProMMP13 is measured with a commercial ELISA kit, according the recommendation of the manufacturer (see Annex). Briefly, 50 μL of each samples are used undiluted and the standard curve is realised in the assay medium. At the end of the assay the ELISA plate is read on a Paradigm MTP-Reader (Beckman Coulter) at 540 (reference wavelength) and 450 nm. All the absorbance values obtained at 450 nm are corrected with the absorbance at 540 nm and a ‘Four Parameter Fit’ is used to establish the standard curve. From the standard curve the concentrations of proMMP13 in all the samples are calculated. All the calculations are realised by the Paradigm software.
The data reported in the database are the % effect of the compounds at the two highest concentrations (10 and 3 μM) as well as the IC50.
% effect at the two highest concentrations is calculated according to the formula: […]
The IC50s are calculated with the software Graph Pad Prism (see tables in Example 1).

Setting [3] is: 72 h, SW1353 cells, 40 μg/mL collagen type II, three days.

Like-named read-outs stand apart in the source and are kept apart here.

Broadly, the IC50 is the midpoint of a concentration-inhibition curve. Regarding `CNC(=O)c1cc(Oc2ccc(CNC(=O)Nc3cc(Cl)cnc3OC)cc2C)ccn1` [compound 23], the IC50 in assay [1] is 37 nM; in assay [2] (setting [3]), 45.4 nM.

On to `CNC(=O)c1cc(Oc2ccc(CNC(=O)Nc3cc(C(F)(F)F)cn(C)c3=O)cc2)ccn1` [compound 8], for which the IC50 in assay [1] was 97 nM; in assay [2] (SW1353, 72 h), 14.8 nM.

On to `COc1ncc(C)cc1NC(=O)NCc1ccc(Oc2ccncc2)cc1` [compound 18], for which the IC50 in assay [1] was 100 nM; in assay [2] (setting [3]) it was 733 nM.

Take `COc1ncc(Cl)cc1NC(=O)NCc1ccc(Oc2ccnc(C)c2)c(C)c1` [compound 28]: the IC50 in assay [1] was determined as 110 nM; in assay [2] (setting [3]), 348 nM.

For the molecule `CNC(=O)c1cc(Oc2ccc(CNC(=O)Nc3cc(Cl)cnc3OC)cc2)ccn1` [compound 21], the IC50 in assay [1] was 44 nM; in assay [2] (setting [3]), 69 nM.

As for `CNC(=O)c1cc(Oc2ccc(CNC(=O)Nc3cc(C)cnc3OC)cc2)ccn1` [compound 19], the 50% inhibitory concentration (IC50) worked out at 63 nM in assay [1] and 155 nM in assay [2] (setting [3]).

For the molecule `CNC(=O)c1cc(Oc2ccc(CNC(=O)Nc3cc(C(F)(F)F)cnc3Cl)cc2C)ccn1` [compound 26], the IC50 in assay [1] was 52 nM; in assay [2] (setting [3]), 42.4 nM.

On to `Cc1cc(Oc2ccc(CNC(=O)Nc3cc(C(F)(F)F)cnc3Cl)cc2C)ccn1` [compound 30], for which the figures for the half-inhibitory concentration (IC50) in assay [1] and in assay [2] (setting [3]) were 100 nM and 960 nM, respectively.

As for `Cc1cc(Oc2ccc(CNC(=O)Nc3cc(C(F)(F)F)cn(C)c3=O)cc2C)ccn1` [compound 6], the figures for the IC50 in assay [1] and in assay [2] (setting [3]) were 110 nM and 258 nM, respectively.

`CNC(=O)c1cc(Oc2ccc(CNC(=O)Nc3cc(C(F)(F)F)cn(C)c3=O)cc2C)ccn1` [compound 7]: the IC50 in assay [1] turned out to be 37 nM; in assay [2] (setting [3]), 32.9 nM.
